This assay concerns the target T1, mature Arabidopsis BIO3-BIO1 (SEQ ID NO: 21) (Arabidopsis thaliana, UniProt B0F481).
T1 construct: 6xHis (N); thrombin cleavage site (N); made in house; host or cells: E. coli BL21 (DE3) bioA
T1 sequence (B0F481 with tags, fused parts or gaps): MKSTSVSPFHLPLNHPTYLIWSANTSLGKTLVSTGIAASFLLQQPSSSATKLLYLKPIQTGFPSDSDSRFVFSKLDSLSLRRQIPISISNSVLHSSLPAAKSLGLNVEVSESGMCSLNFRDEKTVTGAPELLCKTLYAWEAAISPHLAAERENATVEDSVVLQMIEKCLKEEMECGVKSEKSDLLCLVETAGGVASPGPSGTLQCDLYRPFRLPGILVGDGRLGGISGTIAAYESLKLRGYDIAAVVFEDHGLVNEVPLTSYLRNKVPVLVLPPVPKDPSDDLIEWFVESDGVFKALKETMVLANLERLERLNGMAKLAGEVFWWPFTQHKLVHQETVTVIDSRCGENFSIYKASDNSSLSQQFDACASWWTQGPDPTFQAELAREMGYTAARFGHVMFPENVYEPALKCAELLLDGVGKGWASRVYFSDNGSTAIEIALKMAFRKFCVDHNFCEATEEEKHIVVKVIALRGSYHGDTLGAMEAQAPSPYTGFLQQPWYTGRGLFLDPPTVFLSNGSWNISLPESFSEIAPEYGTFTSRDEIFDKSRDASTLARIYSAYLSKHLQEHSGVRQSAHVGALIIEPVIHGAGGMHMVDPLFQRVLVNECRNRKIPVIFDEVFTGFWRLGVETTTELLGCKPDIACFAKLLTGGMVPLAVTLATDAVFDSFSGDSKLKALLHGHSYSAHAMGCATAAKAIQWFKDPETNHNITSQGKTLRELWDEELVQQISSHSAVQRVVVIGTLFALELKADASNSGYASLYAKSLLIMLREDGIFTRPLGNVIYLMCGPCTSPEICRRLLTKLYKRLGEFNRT
The assay can be described thus: DAPA-AT assay with spermidine as amine donor, fluorescent detection of DAPA:o-phthalaldehyde. Format: biochemical. The conditions noted are these: 10 μM spermidine, 1 μM KAPA, 60 minutes at 20° C.; for inhibition at 1 µM: inhibitor concentration 1 μM; for inhibition at 5 µM: inhibitor concentration 5 μM; for inhibition at 20 µM: inhibitor concentration 20 μM; for inhibition at 100 µM: inhibitor concentration 100 μM; for inhibition at 0.2 µM: inhibitor concentration 0.2 μM. As for the experimental part: A pET-24 plasmid containing a DNA sequence encoding BIO3-BIO1 derived from Arabidopsis thaliana, codon-optimised for expression in E. coli, with the predicted N-terminal mitochondrial transit peptide removed and with an N-terminal 6×His-tag and thrombin cleavage site and under control of a T7 promoter (SEQ ID NO:38), was synthesised by Twist Bioscience. The plasmid was expressed in E. coli BL21 (DE3) bioA with 50 μg/mL kanamycin and 25 μg/mL chloramphenicol selection. Overnight cultures grown at 37° C. were used to inoculate 8×500 mL AIM in shake flasks at a ratio of 1:100. Cultures were grown at 37° C., 200 rpm for 3.5 hours and then overnight at 20° C. Cells were harvested by centrifugation for 30 minutes at 10 000 g. Cells were stored at −80° C. until extraction. 30 g of cell pellet from was thawed in 120 mL of IMAC buffer A (20 mM HEPES pH7.5, 25 mM imidazole, 500 mM sodium chloride, 0.15 mM pyridoxal phosphate, 0.5 mM TCEP, 1×complete Protease Inhibitor Tablet (Roche)). The resuspension was passed through a cell disrupter at 18 000 PSI and centrifuged at 50 000 g for 25 minutes at 4° C. The His-tagged BIO3-BIO1 protein was purified from the extract supernatant on an ÄKTA avant chromatography system (Cytiva) using a HisTrap FF column and eluted in IMAC buffer B ((20 mM HEPES pH7.5, 500 mM imidazole, 500 mM sodium chloride, 0.15 mM pyridoxal phosphate, 0.5 mM TCEP) followed by SEC using a HiLoad 26/60 Superdex200 column in SEC buffer (25 mM HEPES pH7.5, 150 mM sodium chloride, 0.15 mM pyridoxal phosphate, 0.5 mM TCEP). Protein concentration was measured and calculated using the absorbance at 280 nm. Extracts were diluted 1 in 4 and 10 uL was analysed by SDS PAGE.
To measure DAPA-AT enzyme activity in the presence of herbicide (candidate compound), 0.5 μL of the herbicide was incubated with 20 μL of enzyme mix (100 mM EPPS pH 8.6, 0.1 mM pyridoxal phosphate, 0.1 mg/mL BSA, 25 nM BIO3-BIO1 enzyme) for 10 minutes at 20° C. in a well of a 384-well black plate, followed by the addition of 20 μL of substrate mix (final concentration of 100 mM EPPS pH 8.6, 0.1 mM pyridoxal phosphate, 0.1 mg/mL BSA, 10 μM spermidine, 1 μM KAPA, 100 mM NaHCO3) and further incubation for 60 minutes at 20° C. The reaction was terminated by the addition of 50 μL of derivatisation mix consisting of 185 mM borate NaOH pH 9.4, 3 mM o-phthalaldehyde, 6 mM β-mercaptoethanol, 22.5% (v/v) ethanol, 3% (v/v) methanol. The fluorescent product produced by the reaction of DAPA with o-phthalaldehyde and β-mercaptoethanol was measured at 470 nm after excitation at 410 nm. The percentage inhibition was calculated using the equation, % inhibition=100×((((MAX−MIN)−(X−MIN))/(MAX−MIN))), where MIN and MAX are the average of the minimum reaction and maximum reaction controls and X is the test sample. Compounds are typically added directly to the assay plate in a serial 3× dilution from a top final concentration of 100 μM over 10 different concentrations. The percent inhibition values are fitted to a dose-response using the equation Y=Bottom+(Top−Bottom)/(1+((X^Hill Slope)/(IC50^Hill Slope))) to calculate the compound concentration that gives 50% inhibition (IC50).

As usually defined, the inhibition is the percentage by which the read-out fell short of the control. As to `CCOC(=O)c1nn(-c2ccc3c(c2)OC(F)(F)C(F)(F)O3)c2cccc(C(C)=O)c2c1=O` [Compound A, ethyl 5-acetyl-4-oxo-1-(2,2,3,3-tetrafluoro-1,4-benzodioxin-6-yl)cinnoline-3-carboxylate], at 1 µM the inhibition was 59% and 5 µM produced 84% inhibition.
The molecule `CC(O)C(N)CCCCC(=O)O` (centres unmarked) [Compound B, [5-carboxy-1-(1-hydroxyethyl)pentyl]ammonium; chloride] had an inhibition at 20 µM of 84% and an inhibition at 100 µM of 95%.
As to `CCn1c(C)c(-c2ccc(F)cc2F)c(=O)c(C(=O)O)c1-c1ccc(Cl)c(Cl)c1` [Compound C, 2-(3,4-dichlorophenyl)-5-(2,4-difluorophenyl)-1-ethyl-6-methyl-4-oxo-pyridine-3-carboxylic acid], at 0.2 µM the inhibition was 29%, 1 µM produced 64% inhibition and the inhibition at 5 µM came out at 85%.
The like results for `CCn1c(C)c(-c2cc(OC(F)(F)F)ccc2Cl)c(=O)c(C(=O)O)c1-c1ccc(Cl)c(Cl)c1` [Compound D, 5-[2-chloro-5-(trifluoromethoxy)phenyl]-2-(3,4-dichlorophenyl)-1-ethyl-6-methyl-4-oxo-pyridine-3-carboxylic acid] were, in that order, 51%, 84% and 95%.
In turn, `C[C@@H](N)COc1cccc(C(=O)O)n1` [Compound E, [(1R)-2-(6-carboxypyridin-1-ium-2-yl)oxy-1-methyl-ethyl]ammonium; dichloride] gave an inhibition at 20 µM of 80% and an inhibition at 100 µM of 94%.
`CCn1c(Cn2ccc(C(F)(F)F)n2)cc(=O)c(C(=O)O)c1-c1ccc(Cl)c(Cl)c1` [Compound L, 2-(3,4-dichlorophenyl)-1-ethyl-4-oxo-6-[[3-(trifluoromethyl)pyrazol-1-yl]methyl]pyridine-3-carboxylic acid] displayed an inhibition at 0.2 µM of 6%, an inhibition at 1 µM of 44% and an inhibition at 5 µM of 83%.
In turn, `CCn1c(-c2ccc(Cl)c(Cl)c2)c(C(=O)O)c(=O)c2cc(F)ccc21` [Compound M, 2-(3,4-dichlorophenyl)-1-ethyl-6-fluoro-4-oxo-quinoline-3-carboxylic acid] came in with an inhibition at 1 µM of 58% and an inhibition at 5 µM of 82%.

(Values after patent publication US20260226527A1, “METHODS FOR IDENTIFYING HERBICIDAL COMPOUNDS” (SYNGENTA CROP PROTECTION AG, priority 2023, published 2026).)
